Measurements as given in patent US5773646A, “Meta-substituted phenylene derivatives” (G. D. Searle & Co., priority 1997, dated 1998).
Structures can show the parent of a compound that is named as a salt.

Tests used:
[1] = target: T1, Human vitronectin receptor (αv β3) (Homo sapiens, UniProt P05106+P06756); assay: Vitronectin adhesion assay (solid phase receptor assay, biotinylated vitronectin competition); assay type: binding; conditions: inhibition of 50% of the maximum binding of biotinylated vitronectin; 1 nM labeled ligand, 2 hours, room temperature, highest concentration of test compound 1.0×10^-4 M; read-out: AvB3 IC50
T1 construct: Human vitronectin receptor(αv β3) was purified from human placenta; from tissue; host or cells: human placenta
Method in brief: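 Placenta-purified αvβ3 coated at 1.0 μg/mL in TBS (1 mM Ca, Mg, Mn, pH 7.4), overnight 4 °C. Compound competed 2 h at RT with 1 nM biotinylated vitronectin (final; top compound 1.0×10^-4 M); bound ligand detected by HRP anti-biotin/OPD at 450 nm, normalized to no-competitor controls, four-parameter fit.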

[2] = target: T2, Human fibrinogen receptor (αIIb β3) (Homo sapiens, UniProt P05106+P08514); assay: Purified IIb/IIIa receptor assay (solid phase receptor assay, biotinylated vitronectin competition); conditions: inhibition of 50% of the maximum binding of biotinylated vitronectin; 1 nM labeled ligand, 2 hours, room temperature, highest concentration of test compound 1.0×10^-4 M
T2 construct: Human fibrinogen receptor (αIIb β3) was purified from outdated platelets; from tissue; host or cells: outdated human platelets
Method in brief: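 Platelet-purified αIIbβ3 was coated at 100 ng/well in TBS with 1 mM Ca²⁺/Mg²⁺/Mn²⁺, pH 7.4, then BSA-blocked. Compound (up to 1.0×10⁻⁴ M final) competed with 1 nM biotinylated vitronectin for 2 h at room temperature. Bound ligand was detected with HRP anti-biotin at A450, normalized to maximum binding, and curve-fitted.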

IC50 [1]	IC50 [2]	Molecule
0.163 µM	11.8 µM	O=C(O)CC(c1ccccc1)c1cccc(NS(=O)(=O)c2cccc(NC(=O)NCc3ccccc3)c2)c1 (stereo not drawn) [Example 13, 3-[[[3-[[[(phenylmethyl)amino]carbonyl]amino]phenyl]sulfonyl]amino]-β-phenylbenzenepropanoic acid, monohydrate]
0.0116 µM	5.18 µM	CCC(CC(=O)O)c1cccc(CNC(=O)c2ccc(Cl)c(NC(=N)N)c2)c1 (racemic) [Example 58, (±) 3-[[[[3-[(aminoiminomethyl)amino]-4-chlorophenyl]carbonyl]amino]methyl]-β-ethylbenzenepropanoic acid, trifluoroacetate salt]
0.00718 µM	0.798 µM	CC(C)C(CC(=O)O)c1cccc(CNC(=O)c2cccc(NC(=N)N)c2)c1 (stereo not drawn) [Example 43, 3-[[[[3-[(aminoiminomethyl)amino]phenyl]carbonyl]amino]methyl]-β-(1-methylethyl) benzenepropanoic acid, trifluoroacetate salt]
7.46 µM	26.9 µM	3-[[[[3-[(aminothioxomethyl)amino]phenyl]carbonyl]amino]methyl]benzenepropanoic acid [Example 25]
0.00133 µM	0.712 µM	N=C(N)Nc1cc(C(=O)NCc2cccc(C(CC(=O)O)c3cc(F)cc(F)c3)c2)cc(C(F)(F)F)c1 (racemic) [Example 61, (±) β-[3-[[[[3-[(aminoiminomethyl)amino]-5-(trifluoromethyl)phenyl]carbonyl]amino]methyl]phenyl]-3,5-difluorobenzenepropanoic acid, trifluoroacetate salt hydrate]
0.0325 µM	5.82 µM	N=C(N)Nc1cccc(S(=O)(=O)Nc2cccc(C(CC(=O)O)c3cc(Cl)cc(Cl)c3)c2)c1 (stereo not drawn) [Example 77, β-[3-[[[3-[(aminoiminomethyl)amino]phenyl]sulfonyl]amino]phenyl]-3,5-dichlorobenzene Propanoic Acid, Trifluoroacetate Salt]
0.00458 µM	0.286 µM	N=C(N)Nc1cccc(C(=O)NCc2cccc(C(CC(=O)O)c3cc(F)cc(F)c3)c2)c1 (racemic) [Example 60, (±) β-[3-[[[[3-[(aminoiminomethyl)amino]phenyl]carbonyl]amino]methyl]phenyl]-3,5-difluorobenzenepropanoic acid, trifluoroacetate salt]
0.641 µM	11.6 µM	NC(=O)Nc1cccc(S(=O)(=O)Nc2cccc(C(CC(=O)O)c3ccccc3)c2)c1 (stereo not drawn) [Example 8, 3-[[[3-[(aminocarbonyl)amino]phenyl]sulfonyl]amino]-β-phenylbenzenepropanoic acid]
0.00895 µM	0.364 µM	N=C(N)Nc1cccc(C(=O)NCc2cccc(C(CC(=O)O)c3ccccc3)c2)c1 (stereo not drawn) [Example 38, 3-[[[[3-[(aminoiminomethyl)amino]phenyl]carbonyl]amino]methyl]-β-phenylbenzenepropanoic acid, trifluoroacetate salt]
0.00085 µM	0.642 µM	O=C(O)CC(c1cc(F)cc(F)c1)c1cccc(NS(=O)(=O)c2cccc(NC3=NCCN3)c2)c1 (stereo not drawn) [Example 98, β-[3-[[[3-[(4,5-dihydro-1H-imidazol-2-yl)amino]phenyl]sulfonyl]amino]phenyl]-3,5-difluorobenzenepropanoic Acid, Trifluoroacetate Salt]
0.0404 µM	1.36 µM	CC(C)(C)OC(=O)CC(c1ccccc1)c1cccc(NS(=O)(=O)c2cccc(NC(N)=NC#N)c2)c1 (stereo not shown) [Example 15]
16.6 µM	39.7 µM	N=C(N)Nc1cccc(NC(=O)Nc2cccc(OCC(=O)O)c2)c1 [Example 52, [3-[[[[3-[(aminoiminomethyl)amino]phenyl]amino]carbonyl]amino]phenoxy]acetic acid, trifluoroacetate salt]
9.37 µM	32 µM	NC(=O)Nc1cccc(C(=O)NCc2cccc(CCC(=O)O)c2)c1 [Example 29, 3-[[[[3-[(aminocarbonyl)amino]phenyl]carbonyl]amino]methyl]benzenepropanoic acid]
0.0116 µM	2.26 µM	CC(CC(=O)O)c1cccc(CNC(=O)c2cccc(NC(=N)N)c2)c1 (stereo not drawn) [Example 40, 3-[[[[3-[(aminoiminomethyl)amino]phenyl]carbonyl]amino]methyl]-β-methylbenzenepropanoic acid, trifluoroacetate salt]
3.21 µM	0.094 µM	N=C(N)Nc1cccc(C(=O)NCCc2cccc(CC(=O)O)c2)c1 [Example 44, 3-[2-[[[3-[(aminoiminomethyl)amino]phenyl]carbonyl]amino]ethyl]benzeneacetic acid, monohydrate trifluoroacetate salt]
2.44 µM	2.28 µM	N=C(N)Nc1cccc(CC(=O)Nc2cccc(CCC(=O)O)c2)c1 [Example 46, 3-[[[3-[(aminoiminomethyl)amino]phenyl]acetyl]amino]benzenepropanoic acid, trifluoroacetate salt]
0.0889 µM	13.8 µM	NC(=O)N=C(N)Nc1cccc(S(=O)(=O)Nc2cccc(C(CC(=O)O)c3cc(Cl)cc(Cl)c3)c2)c1 (stereo not drawn) [Example 90, β-[3-[[[3-[[amino[(aminocarbonyl)imino]methyl]amino]phenyl]sulfonyl]amino]phenyl]-3,5-dichlorobenzenepropanoic Acid, Trifluoroacetate Salt]
0.122 µM	12.9 µM	CC(CC(=O)O)c1cccc(CNC(=O)c2cccc(NC3=NC(=O)CN3)c2)c1 (racemic) [Example 67, (±) 3-[[[[3-[(4,5-dihydro-4-oxo-1H-imidazol-2-yl)amino]phenyl]carbonyl]amino]methyl]-β-methylbenzenepropanoic acid]
0.0357 µM	8.45 µM	CCC(CC(=O)O)c1cccc(NS(=O)(=O)c2cccc(NC(N)=NC(N)=O)c2)c1 (stereo not drawn) [Example 95, 3-[[[3-[[amino[(aminocarbonyl)imino]methyl]amino]phenyl]sulfonyl]amino]-β-ethylbenzenepropanoic Acid, Trifluoroacetate Salt]
0.0545 µM	6.15 µM	N=C(N)Nc1cccc(/C=C/c2cccc(C(CC(=O)O)c3ccccc3)c2)c1 (stereo not drawn) [Example 75, 3-[2E-[3-[(aminoiminomethyl)amino]phenyl]ethenyl]-β-phenylbenzenepropanoic Acid, Bis(trifluoroacetate) Salt]
36.5 µM	> 100 µM	COC(=O)Cc1cccc(CNC(=O)c2cccc(NC(=N)N)c2)c1 [Example 47, methyl 3-[[[[3-[(aminoiminomethyl)amino]phenyl]carbonyl]amino]methyl]benzeneacetate, trifluoroacetate salt]
32.2 µM	79 µM	CCOC(=O)CC(c1ccccc1)c1cccc(CNC(=O)c2cccc(NC(=N)N)c2)c1 (stereo not drawn) [Example 37, ethyl 3-[[[[3-[(aminoiminomethyl)amino]phenyl]carbonyl]amino]methyl]-β-phenylbenzenepropanoate, trifluoroacetate salt]
3.57 µM	5.36 µM	O=C(O)CCc1cccc(CNC(=O)c2cccc(NC(=O)NCc3ccccc3)c2)c1 [Example 31, 3-[[[[3-[[[(phenylmethyl)amino]carbonyl]amino]phenyl]carbonyl]amino]methyl]benzenepropanoic acid]
0.191 µM	11.7 µM	N=C(N)Nc1cccc(S(=O)(=O)Nc2cccc(C(CC(=O)O)c3c(F)c(F)cc(F)c3F)c2)c1 (stereo not drawn) [Example 82, β-[3-[[[3-[(aminoiminomethyl)amino]phenyl]sulfonyl]amino]phenyl]-2,3,5,6-tetrafluorobenzenepropanoic Acid, Trifluoroacetate Salt]
0.013 µM	1.37 µM	N=C(N)Nc1cccc(S(=O)(=O)Nc2cccc(C(CC(=O)O)c3cc(F)c(F)c(F)c3)c2)c1 (stereo not drawn) [Example 80, β-[3-[[[3-[(aminoiminomethyl)amino]phenyl]sulfonyl]amino]phenyl]-3,4,5-trifluorobenzenepropanoic Acid, Trifluoroacetate Salt]
0.554 µM	2.44 µM	N=C(N)Nc1cccc(CNc2cccc(C(CC(=O)O)c3ccccc3)c2)c1 (stereo not drawn) [Example 11, 3-[[[3-[(aminoiminomethyl)amino]phenyl]methyl]amino]-β-phenylbenzenepropanoic acid, trifluoroacetate salt]
0.00839 µM	1.07 µM	NC(=O)N=C(N)Nc1cccc(S(=O)(=O)Nc2cccc(C(CC(=O)O)c3cc(F)cc(F)c3)c2)c1 (stereo not drawn) [Example 91, β-[3-[[[3-[[amino[(aminocarbonyl)imino]methyl]amino]phenyl]sulfonyl]amino]phenyl]-3,5-difluorobenzenepropanoic Acid, Trifluoroacetate Salt]
> 100 µM	55.5 µM	N=C(N)Nc1cccc(C(=O)Nc2cccc(CC(=O)O)c2)c1 [Example 50, 3-[[[3-[(aminoiminomethyl)amino]phenyl]carbonyl]amino]benzeneacetic acid, trifluoroacetate salt]
0.00456 µM	0.799 µM	N=C(N)Nc1cccc(S(=O)(=O)Cc2cccc(C(CC(=O)O)c3ccccc3)c2)c1 (stereo not drawn) [Example 89, 3-[[[3-[(aminoiminomethyl)amino]phenyl]sulfonyl]methyl]-β-phenylbenzenepropanoic Acid, Trifluoroacetate Salt]
